Measured values from patent US20240158446A1, “CYCLIC COMPOUND HAVING SELECTIVE INHIBITORY ACTION ON KRAS OVER HRAS AND NRAS” (CHUGAI SEIYAKU KABUSHIKI KAISHA, priority 2021, published 2024).
Like-named read-outs stand apart in the source and are kept apart here. Where a SMILES comes first, the peptide text is derived from it. Bridges are numbered along the chain shown (N, C = ends). [ ]: non-standard residue; d: D form. The star is where a group is joined. hPhe(3,5-F2-4-CF3) = N[C@@H](CCc1cc(F)c(C(F)(F)F)c(F)c1)C(=O)O; hPhe(3-Cl-4-CF3) = N[C@@H](CCc1ccc(C(F)(F)F)c(Cl)c1)C(=O)O; NPrPhe(4-CF3) = CCCN[C@@H](Cc1ccc(C(F)(F)F)cc1)C(=O)O; NMeGly(cPent) = CN[C@H](C(=O)O)C1CCCC1; Pro(4,4-F2) = O=C(O)[C@@H]1CC(F)(F)CN1; NMeGly(cBu) = CN[C@H](C(=O)O)C1CCC1; Hyp = O=C(O)[C@@H]1C[C@@H](O)CN1; NMeD = CN[C@@H](CC(=O)O)C(=O)O; NMeL = CN[C@@H](CC(C)C)C(=O)O; Pip = O=C(O)[C@@H]1CCCCN1; Iva = CC[C@](C)(N)C(=O)O; Morpholide = C1CN(*)CCO1; Ac5c = NC1(C(=O)O)CCCC1; Aze = O=C(O)[C@@H]1CCN1; Ac4c = NC1(C(=O)O)CCC1; NPrGly = CCCNCC(=O)O; Sar = CNCC(=O)O

Legend:
[1] = biological target: GDP-bound KRAS wild-type protein (Homo sapiens, UniProt P01116); experiment: Binding to KRAS by surface plasmon resonance (SPR), Single Cycle Kinetics; settings: GDP-bound KRAS wild-type protein, read-out: KRAS KD
[2] = biological target: GDP-bound HRAS wild-type protein (Homo sapiens, UniProt P01112); experiment: Binding to HRAS by surface plasmon resonance (SPR), Single Cycle Kinetics; settings: for HRAS/KRAS (ratio of KD value with respect to HRAS to KD value with respect to KRAS) / HRAS/KRAS (ratio of KD value for HRAS to KD value for KRAS): SPR, GDP-bound HRAS wild-type protein vs GDP-bound KRAS wild-type protein
[3] = biological target: GDP-bound NRAS wild-type protein (Homo sapiens, UniProt P01111); experiment: Binding to NRAS by surface plasmon resonance (SPR), Single Cycle Kinetics; settings: for NRAS/KRAS (ratio of KD value with respect to NRAS to KD value with respect to KRAS) / NRAS/KRAS (ratio of KD value for NRAS to KD value for KRAS): SPR, GDP-bound NRAS wild-type protein vs GDP-bound KRAS wild-type protein
[4] = SPR Single Cycle Kinetics, 1:1 binding model

GDP-bound NRAS wild-type protein, sequence (P01111 whole entry): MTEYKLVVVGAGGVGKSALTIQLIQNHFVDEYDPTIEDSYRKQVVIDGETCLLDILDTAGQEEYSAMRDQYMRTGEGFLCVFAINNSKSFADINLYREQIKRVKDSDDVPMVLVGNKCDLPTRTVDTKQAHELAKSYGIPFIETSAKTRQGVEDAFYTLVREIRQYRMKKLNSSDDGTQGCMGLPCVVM
GDP-bound KRAS wild-type protein, sequence (P01116 whole entry): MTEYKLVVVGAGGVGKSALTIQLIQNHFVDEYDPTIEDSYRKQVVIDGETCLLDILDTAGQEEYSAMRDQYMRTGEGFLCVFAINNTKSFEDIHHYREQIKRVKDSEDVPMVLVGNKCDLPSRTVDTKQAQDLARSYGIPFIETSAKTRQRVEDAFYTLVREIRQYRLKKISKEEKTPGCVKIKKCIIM
GDP-bound HRAS wild-type protein, sequence (P01112 whole entry): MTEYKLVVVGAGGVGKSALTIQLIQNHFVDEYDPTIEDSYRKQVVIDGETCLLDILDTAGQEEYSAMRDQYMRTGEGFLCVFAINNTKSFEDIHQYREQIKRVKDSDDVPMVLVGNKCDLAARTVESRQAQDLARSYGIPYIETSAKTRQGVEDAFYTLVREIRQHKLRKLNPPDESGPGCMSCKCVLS

SMILES	Kd [1, 4]	Kd ([1]; SPR, Single Cycle Kinetics)	HRAS/KRAS (ratio of KD value for HRAS to KD value for KRAS) [2]	NRAS/KRAS (ratio of KD value for NRAS to KD value for KRAS) [3]	further results
CCCN1C(=O)[C@@H]2CCN2C(=O)CN(C)C(=O)[C@H]([C@@H](C)CC)NC(=O)[C@H](CC(C)C)N(C)C(=O)C[C@@H](C(=O)N(C)C)N(C)C(=O)[C@H](C2CCCC2)N(C)C(=O)C2(CCC2)NC(=O)[C@@H]2C[C@@H](OCC)CN2C(=O)[C@H](CCc2ccc(C(F)(F)F)c(Cl)c2)NC(=O)CN(C)C(=O)[C@@H]1Cc1ccc(C(F)(F)F)cc1 [PP0445] ([NMeL]I[Sar][Aze][NPrPhe(4-CF3)][Sar][hPhe(3-Cl-4-CF3)][Hyp](Et)[Ac4c][NMeGly(cPent)][NMeD]-NMe2; lactam N-11)	0.025 nM	–	–	–	HRAS/KRAS (ratio of KD value with respect to HRAS to KD value with respect to KRAS) [2]: C (A compound having a KD ratio of 0.1 or more and less than 3 is denoted as C); NRAS/KRAS (ratio of KD value with respect to NRAS to KD value with respect to KRAS) [3]: C (A compound having a KD ratio of 0.1 or more and less than 3 is denoted as C)
CCCN1C(=O)CN(C)C(=O)CN(C)C(=O)[C@H]([C@@H](C)CC)NC(=O)[C@H](CC(C)C)N(C)C(=O)C[C@@H](C(=O)N2CCOCC2)N(C)C(=O)[C@H](C2CCCC2)N(C)C(=O)[C@](C)(CC)NC(=O)[C@@H]2CCCN2C(=O)[C@H](CCc2cc(F)c(C(F)(F)F)c(F)c2)NC(=O)CN(C)C(=O)[C@@H]1Cc1ccc(C(F)(F)F)cc1 [PP0754] ([NMeL]I[Sar][Sar][NPrPhe(4-CF3)][Sar][hPhe(3,5-F2-4-CF3)]P[Iva][NMeGly(cPent)][NMeD]-Morpholide; lactam N-11)	0.49 nM	–	–	–	HRAS/KRAS (ratio of KD value with respect to HRAS to KD value with respect to KRAS) [2]: C (A compound having a KD ratio of 0.1 or more and less than 3 is denoted as C); NRAS/KRAS (ratio of KD value with respect to NRAS to KD value with respect to KRAS) [3]: B (a compound having 3 or more and less than 10 is denoted as B)
CC[C@H](C)[C@@H]1NC(=O)[C@H](CC(C)C)N(C)C(=O)C[C@@H](C(=O)N2CCOCC2)N(C)C(=O)[C@H](C2CCCC2)N(C)C(=O)C2(CCC2)NC(=O)[C@@H]2[C@H]3C[C@H]3CN2C(=O)[C@H](CCc2cc(F)c(C(F)(F)F)c(F)c2)NC(=O)CN(C)C(=O)[C@H](Cc2ccc(C(F)(F)F)cc2)N2CCCC[C@@H](C2=O)N(C)C(=O)CN(C)C1=O [PP0810]	–	0.04 nM	B (a compound having 3 or more and less than 10 is denoted as B)	B (a compound having 3 or more and less than 10 is denoted as B)	–
CCO[C@@H]1C[C@H]2C(=O)NC3(CCC3)C(=O)N(C)[C@@H](C(CC)CC)C(=O)N(C)[C@H](C(=O)N(C)C)CC(=O)N(C)[C@@H](CC(C)C)C(=O)N[C@@H]([C@@H](C)CC)C(=O)N(C)CC(=O)N(C)[C@H]3C/C=C\CCN(C3=O)[C@@H](Cc3ccc(F)cc3C)C(=O)N(C)CC(=O)N[C@@H](CCc3cc(F)c(C(F)(F)F)c(F)c3)C(=O)N2C1 [PP1518]	–	–	–	–	Kd ([1]; SPR, Single Cycle Kinetics, 1:1 binding model): 0.58 nM; HRAS/KRAS (ratio of KD value for HRAS to KD value for KRAS) ([2]; KD ratio class): B (a compound having 3 or more and less than 10 is denoted as B); NRAS/KRAS (ratio of KD value for NRAS to KD value for KRAS) ([3]; KD ratio class): A (a compound having 10 or more and less than 20 is denoted as A)
CCC[C@H]1C(=O)N[C@@H](C2CCCC2)C(=O)N(C)CC(=O)N(C)[C@H]2C/C=C\CCN(C2=O)[C@@H](Cc2ccc(C)cc2)C(=O)N(C)CC(=O)N[C@@H](CCc2ccc(C(F)(F)F)c(OC)c2)C(=O)N2C[C@H](OCC)C[C@H]2C(=O)NC2(CC(C)(C)C2)C(=O)N(C)[C@@H](C2CCCC2)C(=O)N(C)[C@H](C(=O)N(C)C)CC(=O)N1C [PP2992]	–	0.19 nM	A (a compound having 10 or more and less than 20 is denoted as A)	AA (a compound having 20 or more is denoted as AA)	–
CCC[C@H]1C(=O)N[C@@H]([C@@H](C)CC)C(=O)N(C2CC2)CC(=O)N(C)[C@H]2C/C=C\CCN(C2=O)[C@@H](Cc2ccc(C(F)(F)F)cc2)C(=O)N(C)CC(=O)N[C@@H](CCc2ccc(C(F)(F)F)c(OC)c2)C(=O)N2C[C@H](OCC)C[C@H]2C(=O)NC2(CC(C)(C)C2)C(=O)N(C)[C@@H](CC2CCC2)C(=O)N(C)[C@H](C(=O)N(C)C)CC(=O)N1C [PP2770]	5 nM	–	–	–	HRAS/KRAS (ratio of KD value with respect to GDP-bound HRAS wild-type protein to KD value with respect to KRAS) ([2]; SPR KD ratio HRAS/KRAS, class symbols): A (a compound having 10 or more and less than 20 is denoted as A); NRAS/KRAS (ratio of KD value with respect to GDP-bound NRAS wild-type protein to KD value with respect to KRAS) ([3]; SPR KD ratio NRAS/KRAS, class symbols): A (a compound having 10 or more and less than 20 is denoted as A)
CCCN1C(=O)CN(C)C(=O)CNC(=O)[C@H]([C@@H](C)CC)NC(=O)[C@H](CC(C)C)N(C)C(=O)C[C@@H](C(=O)N(C)C)NC(=O)[C@H](C2CCCC2)N(C)C(=O)C2(CCCC2)NC(=O)[C@@H]2C[C@@H](OCC)CN2C(=O)[C@H](CCc2ccc(C(F)(F)F)c(Cl)c2)NC(=O)CN(C)C(=O)[C@@H]1Cc1ccc(C(F)(F)F)cc1 [PP0365] ([NMeL]IG[Sar][NPrPhe(4-CF3)][Sar][hPhe(3-Cl-4-CF3)][Hyp](Et)[Ac5c][NMeGly(cPent)]D-NMe2; lactam N-11)	0.29 nM	–	B (a compound having 3 or more and less than 10 is denoted as B)	B (a compound having 3 or more and less than 10 is denoted as B)	–
CCCN1C(=O)CN(C)C(=O)CN(C)C(=O)[C@H]([C@@H](C)CC)NC(=O)[C@H](C2CCC2)N(C)C(=O)C[C@@H](C(=O)N2CCOCC2)N(C)C(=O)[C@H](C2CCCC2)N(C)C(=O)C2(CCCC2)NC(=O)[C@@H]2CC(F)(F)CN2C(=O)[C@H](CCc2ccc(C(F)(F)F)c(Cl)c2)NC(=O)CN(C)C(=O)[C@@H]1Cc1ccc(C(F)(F)F)cc1 [PP0200] ([NMeGly(cBu)]I[Sar][Sar][NPrPhe(4-CF3)][Sar][hPhe(3-Cl-4-CF3)][Pro(4,4-F2)][Ac5c][NMeGly(cPent)][NMeD]-Morpholide; lactam N-11)	0.22 nM	–	C (A compound having a KD ratio of 0.1 or more and less than 3 is denoted as C)	C (A compound having a KD ratio of 0.1 or more and less than 3 is denoted as C)	–
CCCN1CC(=O)N(C)CC(=O)N(CCC)[C@@H](Cc2ccc(C(F)(F)F)cc2)C(=O)N(C)CC(=O)N[C@@H](CCc2ccc(C(F)(F)F)c(Cl)c2)C(=O)N2CCC[C@H]2C(=O)NC2(CCCC2)C(=O)N(C)[C@@H](C2CCCC2)C(=O)N(C)[C@H](C(=O)N2CCOCC2)CC(=O)N(C)[C@@H](CC(C)C)C(=O)N[C@@H]([C@@H](C)CC)C1=O [PP0253] ([NMeL]I[NPrGly][Sar][NPrPhe(4-CF3)][Sar][hPhe(3-Cl-4-CF3)]P[Ac5c][NMeGly(cPent)][NMeD]-Morpholide; lactam N-11)	0.55 nM	–	B (a compound having 3 or more and less than 10 is denoted as B)	B (a compound having 3 or more and less than 10 is denoted as B)	–
CCCN1C(=O)CN(C)C(=O)[C@@H]2CCN2C(=O)[C@H]([C@@H](C)CC)NC(=O)[C@H](CC(C)C)N(C)C(=O)C[C@@H](C(=O)N2CCOCC2)N(C)C(=O)[C@H](C2CCCC2)N(C)C(=O)C2(CCCC2)NC(=O)[C@@H]2CCCCN2C(=O)[C@H](CCc2ccc(C(F)(F)F)c(Cl)c2)NC(=O)CN(C)C(=O)[C@@H]1Cc1ccc(C(F)(F)F)cc1 [PP0311] ([NMeL]I[Aze][Sar][NPrPhe(4-CF3)][Sar][hPhe(3-Cl-4-CF3)][Pip][Ac5c][NMeGly(cPent)][NMeD]-Morpholide; lactam N-11)	3.3 nM	–	B (a compound having 3 or more and less than 10 is denoted as B)	B (a compound having 3 or more and less than 10 is denoted as B)	–
CCO[C@@H]1C[C@H]2C(=O)NC3(CCCC3)C(=O)N(C)[C@@H](C3CCCC3)C(=O)N(C)[C@H](C)CC(=O)N(C)[C@@H](CC(C)C)C(=O)N[C@@H]([C@@H](C)CC)C(=O)N(C)CC(=O)N(C)[C@H]3C/C=C\CCN(C3=O)[C@@H](Cc3ccc(C(F)(F)F)cc3)C(=O)N(C)CC(=O)N[C@@H](CCc3cc(F)c(C(F)(F)F)c(F)c3)C(=O)N2C1 [PP1096]	–	0.24 nM	B (a compound having 3 or more and less than 10 is denoted as B)	B (a compound having 3 or more and less than 10 is denoted as B)	–
CCO[C@@H]1C[C@H]2C(=O)N(C)C3(CC(C)(C)C3)C(=O)N(C)[C@@H](C3CCCC3)C(=O)N(C)[C@H](C(=O)N(C)C)CC(=O)N(C)[C@H]3CCCC/C=C/c4ccc(cc4)C[C@@H](C(=O)N(C)CC(=O)N[C@@H](CCc4ccc(Cl)c(Cl)c4)C(=O)N2C1)N1CC/C=C\C[C@@H](C1=O)N(C)C(=O)CN(C)C(=O)[C@H]([C@@H](C)CC)NC3=O [PP3062]	–	0.066 nM	A (a compound having 10 or more and less than 20 is denoted as A)	A (a compound having 10 or more and less than 20 is denoted as A)	–
